Tests used:
[1] = target: recombinant BACE1 protein (Homo sapiens, UniProt P56817); assay: BACE1 biochemical FRET based assay; settings: BACE1 0.04 μg/ml, 20 μM substrate, pH 5.0, 450 min; read-out: Biochemical FRET based assay pIC50 (converted)
From the text: (§1) This assay is a Fluorescence Resonance Energy Transfer Assay (FRET) based assay. The substrate for this assay is an APP derived 13 amino acids peptide that contains the ‘Swedish’ Lys-Met/Asn-Leu mutation of the amyloid precursor protein (APP) beta-secretase cleavage site. This substrate also contains two fluorophores: (7-methoxycoumarin-4-yl) acetic acid (Mca) is a fluorescent donor with excitation wavelength at 320 nm and emission at 405 nm and 2,4-Dinitrophenyl (Dnp) is a proprietary quencher acceptor. […] Upon cleavage by BACE1, the fluorophore Mca is separated from the quenching group Dnp, restoring the full fluorescence yield of the donor. The increase in fluorescence is linearly related to the rate of proteolysis.
Briefly in a 384-well format recombinant BACE1 protein in a final concentration of 0.04 μg/ml is incubated for 450 minutes at room temperature with 20 μM substrate in incubation buffer (50 mM Citrate buffer pH 5.0, 0.05% PEG) in the presence of compound or DMSO. Next the amount of proteolysis is directly measured by fluorescence measurement (excitation at 320 nm and emission at 405 nm) at different incubation times (0, 30, 60, 90, 120 and 450 min). For every experiment a time curve (every 30 min between 0 min and 120 min) is used to determine the time where we find the lowest basal signal of the high control. The signal at this time (Tx) is used to subtract from the signal at 450 min. Results are expressed in RFU, as difference between T450 and Tx.
(§2) A best-fit curve is fitted by a minimum sum of squares method to the plot of % Controlmin versus compound concentration. From this an IC50 value (inhibitory concentration causing 50% inhibition of activity) can be obtained. • LC=Median of the low control values • =Low control: Reaction without enzyme • HC=Median of the High control values • =High Control: Reaction with enzyme • % Effect=100−[(sample−LC)/(HC−LC)*100] • % Control=(sample/HC)*100 • % Controlmin=(sample−LC)/(HC−LC)*100

[2] = system: Abeta 1-42 produced and secreted by human neuroblastoma SKNBE2 cells expressing hAPP695; assay: Cellular αLisa assay in SKNBE2 cells, Abeta 1-42; assay type: cell-based; settings: 18 hours incubation, read-out: Cellular αLisa assay in SKNBE2 cells Abeta 42 pIC50 (converted)
Experimental: (§3) In two αLisa assays the levels of Abeta total and Abeta 1-42 produced and secreted into the medium of human neuroblastoma SKNBE2 cells are quantified. The assay is based on the human neuroblastoma SKNBE2 expressing the wild type Amyloid Precursor Protein (hAPP695). The compounds are diluted and added to these cells, incubated for 18 hours and then measurements of Abeta 1-42 and Abeta total are taken. Abeta total and Abeta 1-42 are measured by sandwich αLisa. αLisa is a sandwich assay using biotinylated antibody AbN/25 attached to streptavidin coated beads and antibody Ab4G8 or cAb42/26 conjugated acceptor beads for the detection of Abeta total and Abeta 1-42 respectively. In the presence of Abeta total or Abeta 1-42, the beads come into close proximity. The excitation of the donor beads provokes the release of singlet oxygen molecules that trigger a cascade of energy transfer in the acceptor beads, resulting in light emission. Light emission is measured after 1 hour incubation (excitation at […] and emission at 615 nm).
as §2, with “cells preincubated” for “Reaction”, “compound, without biotinylated Ab in the αLisa” for “enzyme”, “cells preincubated without compound” for “Reaction with enzyme”

[3] = system: Abeta total produced and secreted by human neuroblastoma SKNBE2 cells expressing hAPP695; assay: Cellular αLisa assay in SKNBE2 cells, Abeta total; assay type: cell-based; settings: 18 hours incubation, read-out: Cellular αLisa assay in SKNBE2 cells Abetatotal pIC50 (converted)
Experimental: as §3
as §2, with “cells preincubated” for “Reaction”, “compound, without biotinylated Ab in the αLisa” for “enzyme”, “cells preincubated without compound” for “Reaction with enzyme”

[4] = target: T1, recombinant BACE2 protein (Homo sapiens, UniProt Q9Y5Z0); assay: BACE2 biochemical FRET based assay; settings: BACE2 0.4 μg/ml, 10 μM substrate, pH 5.0, 450 min; read-out: BACE2 Biochemical FRET based assay pIC50 (converted)
T1 sequence (Q9Y5Z0 63-518): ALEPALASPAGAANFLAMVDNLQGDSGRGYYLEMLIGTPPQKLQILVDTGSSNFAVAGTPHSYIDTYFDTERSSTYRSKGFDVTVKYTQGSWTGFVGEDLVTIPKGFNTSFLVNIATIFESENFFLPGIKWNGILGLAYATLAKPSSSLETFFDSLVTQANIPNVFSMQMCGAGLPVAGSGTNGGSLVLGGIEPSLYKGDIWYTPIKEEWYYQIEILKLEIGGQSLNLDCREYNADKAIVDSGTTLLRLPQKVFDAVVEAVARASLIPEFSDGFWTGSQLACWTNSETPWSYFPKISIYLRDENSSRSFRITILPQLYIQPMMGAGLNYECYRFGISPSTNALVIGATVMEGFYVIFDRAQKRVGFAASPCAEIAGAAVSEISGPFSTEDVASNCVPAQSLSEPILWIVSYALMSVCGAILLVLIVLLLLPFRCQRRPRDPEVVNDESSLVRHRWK
From the text: as §1, with “assay” for “assay is an APP derived 13 amino acids peptide that”, “the beta-secretase,” for “BACE1,”
Briefly in a 384-well format recombinant BACE2 protein in a final concentration of 0.4 μg/ml is incubated for 450 minutes at room temperature with 10 μM substrate in incubation buffer (50 mM Citrate buffer pH 5.0, 0.05% PEG, no DMSO) in the absence or presence of compound. Next the amount of proteolysis is directly measured by fluorescence measurement at T=0 and T=450 (excitation at 320 nm and emission at 405 nm). Results are expressed in RFU (Relative Fluorescence Units), as difference between T450 and T0.
as §2

Chain of recombinant BACE1 protein (P56817 46-501): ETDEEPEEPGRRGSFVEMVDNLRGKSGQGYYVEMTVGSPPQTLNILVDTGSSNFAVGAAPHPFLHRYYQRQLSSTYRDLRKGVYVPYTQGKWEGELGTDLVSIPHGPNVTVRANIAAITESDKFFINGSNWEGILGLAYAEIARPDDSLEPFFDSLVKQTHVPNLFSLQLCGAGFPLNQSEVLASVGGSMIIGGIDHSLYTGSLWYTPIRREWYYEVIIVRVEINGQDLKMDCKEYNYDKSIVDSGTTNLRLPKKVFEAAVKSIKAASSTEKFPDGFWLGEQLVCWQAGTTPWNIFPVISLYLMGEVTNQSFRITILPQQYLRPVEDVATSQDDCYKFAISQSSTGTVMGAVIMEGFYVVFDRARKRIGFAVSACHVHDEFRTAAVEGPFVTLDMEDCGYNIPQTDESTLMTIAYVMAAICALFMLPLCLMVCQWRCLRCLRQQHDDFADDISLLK

Row | Compound | IC50 [1] [nM] | IC50 [2] [nM] | IC50 [3] [nM] | IC50 [4] [nM] | melting point [°C]
1 | Cn1cc2n(c1=O)C[C@@](C)(c1cc(-c3cncnc3)ccc1F)N=C2N [Compound 2, (6R)-8-Amino-6-(2-fluoro-5-pyrimidin-5-ylphenyl)-2,6-dimethyl-5,6-dihydro-imidazo[1,5-a]pyrazin-3(2H)-one] | 490 | 1260 | 1020 | 7080 | 239.1
2 | COc1cnc(C(=O)Nc2ccc(F)c([C@]3(C)Cn4c(cn(C)c4=O)C(N)=N3)c2)cn1 [Compound 5, N-{3-[(6R)-8-amino-2,6-dimethyl-3-oxo-2,3,5,6-tetrahydroimidazo[1,5-a]pyrazin-6-yl]-4-fluorophenyl}-5-methoxypyrazine-2-carboxamide] | 9.55 | 36.3 | 29.5 | 100 | –
3 | Cn1cc2n(c1=O)C[C@@](C)(c1cc(NC(=O)c3ccc(F)cn3)ccc1F)N=C2N [Compound 6, N-{3-[(6R)-8-amino-2,6-dimethyl-3-oxo-2,3,5,6-tetrahydroimidazo[1,5-a]pyrazin-6-yl]-4-fluorophenyl}-5-fluoropyridine-2-carboxamide] | 15.1 | 87.1 | 89.1 | 13.2 | –
4 | C[C@@]1(c2cc(NC(=O)c3ccc(F)cn3)ccc2F)Cn2c(cn(CC(F)(F)F)c2=O)C(N)=N1 [Compound 7, N-{3-[(6R)-8-amino-6-methyl-3-oxo-2-(2,2,2-trifluoroethyl)-2,3,5,6-tetrahydroimidazo[1,5-a]pyrazin-6-yl]-4-fluorophenyl}-5-fluoropyridine-2-carboxamide] | 12.3 | 18.6 | 16.6 | 7.41 | 239.9

Next, values leading:

Row | IC50 [1] [nM] | IC50 [2] [nM] | IC50 [3] [nM] | IC50 [4] [nM] | melting point [°C] | Compound
5 | 7.76 | 38.9 | 33.1 | 22.9 | – | Cc1cc(C#N)cnc1C(=O)Nc1ccc(F)c([C@]2(C)Cn3c(cn(C)c3=O)C(N)=N2)c1 [Compound 9, N-{3-[(6R)-8-amino-2,6-dimethyl-3-oxo-2,3,5,6-tetrahydroimidazo[1,5-a]pyrazin-6-yl]-4-fluorophenyl}-5-cyano-3-methylpyridine-2-carboxamide]
6 | 8.71 | 12.3 | 10 | 55 | 280.5 | COc1cnc(C(=O)Nc2ccc(F)c([C@]3(C)Cn4c(cn(CC(F)(F)F)c4=O)C(N)=N3)c2)cn1 [Compound 11, N-{3-[(6R)-8-amino-6-methyl-3-oxo-2-(2,2,2-trifluoroethyl)-2,3,5,6-tetrahydroimidazo[1,5-a]pyrazin-6-yl]-4-fluorophenyl}-5-methoxypyrazine-2-carboxamide]
7 | 4.68 | 5.62 | 4.79 | 6.61 | 219.9 | C[C@@]1(c2cc(NC(=O)c3ccc(Cl)cn3)ccc2F)Cn2c(cn(CC(F)(F)F)c2=O)C(N)=N1 [Compound 8, N-{3-[(6R)-8-amino-6-methyl-3-oxo-2-(2,2,2-trifluoroethyl)-2,3,5,6-tetrahydroimidazo[1,5-a]pyrazin-6-yl]-4-fluorophenyl}-5-chloropyridine-2-carboxamide]
8 | 5.62 | 12.6 | 10.7 | 12 | 235 | C[C@@]1(c2cc(NC(=O)c3ccc(C#N)cn3)ccc2F)Cn2c(cn(CC(F)(F)F)c2=O)C(N)=N1 [Compound 10, N-{3-[(6R)-8-amino-6-methyl-3-oxo-2-(2,2,2-trifluoroethyl)-2,3,5,6-tetrahydroimidazo[1,5-a]pyrazin-6-yl]-4-fluorophenyl}-5-cyanopyridine-2-carboxamide]
